Results on eleven molecules are retold here after patent US8003660B2, “Modulators of muscarinic receptors” (Vertex Pharmaceuticals Incorporated, priority 2006, dated 2011).

SMILES strings stand for the structures. A value given as a limit tells only on which side of the number the result lay.

What all share (type): cell-based
The target in one experiment is T1, M2 muscarinic receptor (Homo sapiens, UniProt P08172).
T1 construct: expressed in transfected cells; host or cells: CHO (M2-CHO)
T1 sequence (P08172 1-466): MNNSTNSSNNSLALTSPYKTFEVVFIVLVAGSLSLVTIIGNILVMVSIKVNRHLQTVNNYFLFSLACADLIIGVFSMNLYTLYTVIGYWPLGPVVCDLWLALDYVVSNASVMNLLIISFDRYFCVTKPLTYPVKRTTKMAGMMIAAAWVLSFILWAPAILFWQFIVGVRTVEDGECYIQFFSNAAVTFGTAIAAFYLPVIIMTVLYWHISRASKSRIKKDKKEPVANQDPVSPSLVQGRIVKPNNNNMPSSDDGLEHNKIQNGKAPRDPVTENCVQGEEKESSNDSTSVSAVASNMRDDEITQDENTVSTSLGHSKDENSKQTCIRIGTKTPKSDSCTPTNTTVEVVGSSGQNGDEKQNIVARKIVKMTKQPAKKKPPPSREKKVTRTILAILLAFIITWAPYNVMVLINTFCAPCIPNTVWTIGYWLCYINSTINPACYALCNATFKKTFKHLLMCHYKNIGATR
Briefly: Functional mobilization of intracellular calcium (FLIPR) in CHO cells expressing M2. Conditions: for EC50: CHO cells expressing M2, FLIPR calcium; for Emax: CHO, 100% = maximum response obtained with the Carbachol control, read-out: M2 Efficacy. How it is done: (§1) Functional Mobilization of Intracellular Calcium to Determine Muscarinic Receptor Activity:
(§2) CHO cells expressing muscarinic receptors (M1 to M5) are grown as monolayers in tissue culture flasks at 37° C. in a humidified atmosphere containing 5% CO2 and passaged every 3-5 days. The growth media is Dulbecco's modified eagles medium (DMEM, Gibco Cat# 12430-054), containing 25 mM Hepes and supplemented with Fetal Bovine Serum (Hyclone, cat# SH30071.03), 0.1 mM of MEM non-essential amino acids (GIBCO, Cat# 11140-050), 1 mM MEM Sodium Pyruvate (GIBCO Cat# 11360-070) and 100 units/ml of Penicillin G and 100 μg/ml of Streptomycin (GIBCO Cat# 15140-122). The recombinant muscarinic receptor cell lines are grown under antibiotic pressure with media containing 25 μg/ml zeocin and 500 μg/ml G418 (M1-CHO), 4 μg/ml puromycin, 50 μg/ml zeocin and 2.5 μg/ml blasticidin (M2 and M4-CHO) or 50 μg/ml zeocin and 4 μg/ml puromycin (M3 and M5-CHO).
(§3) Cells are harvested at 80-90% confluence using Versene (GIBCO Cat# 15040-066), collected by centrifugation and seeded 18-24 hrs prior to running the calcium assay at a density of 5,000-10,000 cells/well in […], clear-bottomed 384-well plates (BD Biocoat, poly-D-lysine, Cat#356663). The day of the experiment, the cells are washed with a plate washer (Bioteck Instruments, ELX 405) using bath 1 buffer (140 mM NaCl, 4,5 mM KCl, 2 mM CaCl2, 1 mM MgCl2, 10 mM Hepes-Na, 10 mM Glucose, pH 7.4, with NaOH) containing 1 mM Probenecid. Next, the calcium dye Fluo-3 (25 μl/well of Fluo-3 AM at 4 μM, Molecular Probes F-1241, in Bath 1 buffer containing 1 mM Probenecid) is added to the 25 μl of Bath 1 remaining in each well after the plate wash and the dye is loaded at 37° C. in the tissue culture incubator for 60-90 min. The fluorescent dye is removed using the plate washer with Bath 1 containing 1 mM Probenecid, leaving 25 μl/well of this solution after the wash. Alternatively, cells can be loaded with the calcium indicator from Molecular Devices (Calcium 3 Assay Reagents, Cat #R7181) adding 5 μl of a 5× solution dye in Bath 1 containing 1 mM Probenecid (10 ml per dye flask cat#R7182 to generate a solution […]) to 20 μl of the same buffer. After loading for 60 min, the experiment can be run without having to remove the dye.
(§4) Compounds are prepared at a 2× fold concentration in a 96-well plate (round bottom, Costar Corning cat#3656), by reconstituting the pre-spotted compounds in bath 1 containing 1 mM probenecid. The final concentration DMSO is 0.5%, and the amount of DMSO is normalized across the assay plate. To determine an agonist action of the compounds on muscarinic receptors, the reconstituted compounds are added (25 μl compound/well) to the cell assay plate (containing 25 μl/well) using the multi-channel robotic system of the FLIPR 3 Instrument (Molecular Devices, Sunnyvale, Calif.). To determine a functional inhibitory action of the compounds on muscarinic receptors, the reconstituted compounds are added (25 μl compound/well) to the assay plate and pre-incubated for 15 min prior to adding 25 μl of Carbachol at 3× the EC80 for each muscarinic subtype. Alternatively, the compounds can be co-applied simultaneously with the agonist. In both assay modes, the fluorescence is recorded for 60 sec (excitation wavelength is […] and emission wavelength 540 nm) using the FLIPR 3 instrument.
(§5) The potency, efficacy and selectivity of the muscarinic compounds were evaluated by screening the compound activity across the whole family (M1 to M5 cells). Compounds were also screened for activity on other proteins such as other GPCRs and ion channels to determine selectivity on M4 receptors.
In general terms: Calcium assays in cells follow changes in intracellular calcium, usually with a dye or a luminescent sensor.

The target of a further experiment is T2, M4 muscarinic receptor (Homo sapiens, UniProt P08173).
T2 construct: expressed in transfected cells; host or cells: CHO (M4-CHO)
T2 sequence (P08173 1-479): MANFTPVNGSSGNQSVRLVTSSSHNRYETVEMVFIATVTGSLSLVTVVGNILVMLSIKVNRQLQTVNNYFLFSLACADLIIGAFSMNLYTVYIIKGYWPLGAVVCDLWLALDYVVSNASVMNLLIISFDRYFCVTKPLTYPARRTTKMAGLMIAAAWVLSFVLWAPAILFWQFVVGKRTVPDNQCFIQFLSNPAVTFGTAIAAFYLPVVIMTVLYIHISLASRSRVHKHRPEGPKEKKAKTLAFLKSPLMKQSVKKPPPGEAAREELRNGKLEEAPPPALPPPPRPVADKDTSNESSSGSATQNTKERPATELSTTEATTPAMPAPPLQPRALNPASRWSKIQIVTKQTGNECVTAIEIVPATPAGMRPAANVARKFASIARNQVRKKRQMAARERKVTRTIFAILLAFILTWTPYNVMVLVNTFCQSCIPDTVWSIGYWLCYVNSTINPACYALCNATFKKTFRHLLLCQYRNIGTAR
Briefly: Functional mobilization of intracellular calcium (FLIPR) in CHO cells expressing M4. The settings on record: for EC50: CHO cells expressing M4, FLIPR calcium; for Emax: CHO, 100% = maximum response obtained with the Carbachol control, read-out: M4 Efficacy. How it is done: as §1, §2, §3, §4, §5

Another experiment has as its target T3, M3 muscarinic receptor (Homo sapiens, UniProt P20309).
T3 construct: expressed in transfected cells; host or cells: CHO (M3-CHO)
Briefly: Functional mobilization of intracellular calcium (FLIPR) in CHO cells expressing M3. The settings on record: for EC50: CHO cells expressing M3, FLIPR calcium; for Emax: CHO, 100% = maximum response obtained with the Carbachol control, read-out: M3 Efficacy. How it is done: as §1, §2, §3, §4, §5

A further experiment concerns the target T4, M1 muscarinic receptor (Homo sapiens, UniProt P11229).
T4 construct: expressed in transfected cells; host or cells: CHO (M1-CHO)
T4 sequence (P11229 1-460): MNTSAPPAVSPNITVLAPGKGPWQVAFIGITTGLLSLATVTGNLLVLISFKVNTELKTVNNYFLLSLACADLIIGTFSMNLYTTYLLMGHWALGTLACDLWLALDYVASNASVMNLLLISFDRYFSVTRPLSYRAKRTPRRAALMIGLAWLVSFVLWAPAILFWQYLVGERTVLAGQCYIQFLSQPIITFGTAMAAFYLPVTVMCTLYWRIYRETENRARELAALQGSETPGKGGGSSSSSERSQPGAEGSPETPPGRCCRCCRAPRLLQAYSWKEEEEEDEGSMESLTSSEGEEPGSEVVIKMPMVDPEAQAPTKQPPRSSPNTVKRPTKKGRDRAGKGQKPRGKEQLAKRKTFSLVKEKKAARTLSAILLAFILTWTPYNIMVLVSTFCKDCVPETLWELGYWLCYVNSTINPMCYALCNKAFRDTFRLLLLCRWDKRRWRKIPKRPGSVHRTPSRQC
Briefly: Functional mobilization of intracellular calcium (FLIPR) in CHO cells expressing M1. The settings on record: for EC50: CHO cells expressing M1, FLIPR calcium; for Emax: CHO, 100% = maximum response obtained with the Carbachol control, read-out: M1 Efficacy. How it is done: as §1, §2, §3, §4, §5

T3 sequence (P20309 whole entry): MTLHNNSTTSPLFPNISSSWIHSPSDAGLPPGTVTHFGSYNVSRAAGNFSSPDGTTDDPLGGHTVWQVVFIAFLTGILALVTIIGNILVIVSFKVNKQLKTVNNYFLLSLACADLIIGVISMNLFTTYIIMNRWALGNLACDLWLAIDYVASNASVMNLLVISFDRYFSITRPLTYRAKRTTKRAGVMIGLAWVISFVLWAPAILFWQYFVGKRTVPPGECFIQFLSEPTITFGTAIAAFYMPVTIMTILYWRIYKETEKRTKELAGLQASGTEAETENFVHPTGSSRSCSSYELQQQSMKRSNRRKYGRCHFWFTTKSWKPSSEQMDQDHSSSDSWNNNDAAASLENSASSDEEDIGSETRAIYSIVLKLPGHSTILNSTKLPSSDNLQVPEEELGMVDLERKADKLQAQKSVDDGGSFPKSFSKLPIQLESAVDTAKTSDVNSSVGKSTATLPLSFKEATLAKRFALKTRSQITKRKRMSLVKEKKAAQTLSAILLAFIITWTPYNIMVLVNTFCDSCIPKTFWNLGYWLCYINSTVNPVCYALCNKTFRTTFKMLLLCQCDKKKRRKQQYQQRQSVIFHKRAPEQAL

Take `CC(C)(C)CCN1CCC2(CC[C@@H](NC(=O)CC3CCCC3=O)c3ccc(F)cc32)CC1` (stereo partly shown) [compound 17]: the EC50 (usually the midpoint of the concentration-response curve) was above 5000 nM at M2 muscarinic receptor, below 2000 nM at M4 muscarinic receptor, above 5000 nM at M3 muscarinic receptor and below 2000 nM at M1 muscarinic receptor. For the same molecule, the Emax is below 25% on M2 muscarinic receptor, 25 to 100% at M4 muscarinic receptor, below 25% on M3 muscarinic receptor and 25 to 100% on M1 muscarinic receptor.
Consider `CC(=O)CCC(=O)N[C@H]1CCC2(CCN(CCC(C)(C)C)CC2)c2ccccc21` [compound 18], for which the EC50 is below 2000 nM on M2 muscarinic receptor, below 2000 nM on M4 muscarinic receptor, above 5000 nM at M3 muscarinic receptor and below 2000 nM at M1 muscarinic receptor. Further, the Emax on M2 muscarinic receptor is 25 to 100%; on M4 muscarinic receptor it was 25 to 100%; at M3 muscarinic receptor it was below 25%; at M1 muscarinic receptor, 25 to 100%.
As to `COC(C)(C)CCCC(C)CCN1CCC2(CC[C@H](NC(=O)N(C)C)c3ccccc32)CC1` (stereo partly shown) [compound 19], the EC50 at M2 muscarinic receptor, at M4 muscarinic receptor, at M3 muscarinic receptor and on M1 muscarinic receptor was above 5000 nM each time. In addition, the Emax at M2 muscarinic receptor, on M4 muscarinic receptor, on M3 muscarinic receptor and at M1 muscarinic receptor was below 25% in each case.
`CC(=O)NCCC(=O)N[C@@H]1CCC2(CCN(CCC(C)(C)C)CC2)c2cc(F)ccc21` [compound 20]: the EC50 at M2 muscarinic receptor was below 2000 nM; on M4 muscarinic receptor, below 2000 nM; at M3 muscarinic receptor it was above 5000 nM; at M1 muscarinic receptor, below 2000 nM. Further, the Emax on M2 muscarinic receptor is 25 to 100%; on M4 muscarinic receptor it was 25 to 100%; at M3 muscarinic receptor, below 25%; at M1 muscarinic receptor, 25 to 100%.
As to `CCOCCC(=O)N[C@@H]1CCC2(CCN(CCC(C)(C)C)CC2)c2ccccc21` [compound 21], the EC50 was below 2000 nM on M2 muscarinic receptor, below 2000 nM on M4 muscarinic receptor, above 5000 nM on M3 muscarinic receptor and below 2000 nM at M1 muscarinic receptor. The Emax at M2 muscarinic receptor was 25 to 100%; on M4 muscarinic receptor it was 25 to 100%; on M3 muscarinic receptor, below 25%; at M1 muscarinic receptor it was 25 to 100%.
As for `C[C@@H](C(=O)N[C@@H]1CCC2(CCN(CCC(C)(C)C)CC2)c2cc(F)ccc21)N1CCCC1=O` [compound 22], the EC50 on M2 muscarinic receptor was 2000 to 5000 nM; at M4 muscarinic receptor, below 2000 nM; on M3 muscarinic receptor, above 5000 nM; on M1 muscarinic receptor it was 2000 to 5000 nM. The Emax was below 25% on M2 muscarinic receptor, 25 to 100% at M4 muscarinic receptor, below 25% on M3 muscarinic receptor and 25 to 100% on M1 muscarinic receptor.
On to `CC(C)C[C@@H](C(=O)N[C@H]1CCC2(CCN(CCC(C)(C)C)CC2)c2ccccc21)N1CCCC1=O` [compound 23], for which the EC50 was above 5000 nM on M2 muscarinic receptor, below 2000 nM at M4 muscarinic receptor, above 5000 nM on M3 muscarinic receptor and 2000 to 5000 nM at M1 muscarinic receptor. For the same molecule, the Emax was below 25% at M2 muscarinic receptor, 25 to 100% at M4 muscarinic receptor, below 25% on M3 muscarinic receptor and below 25% at M1 muscarinic receptor.
With `CCN(C(=O)C1CCC(OC)CC1)[C@H]1CCC2(CCN(CCC(C)(C)C)CC2)c2ccccc21` (stereo partly shown) [compound 24], the EC50 at M2 muscarinic receptor was below 2000 nM; at M4 muscarinic receptor it was below 2000 nM; on M3 muscarinic receptor, above 5000 nM; at M1 muscarinic receptor, above 5000 nM. For the same molecule, the Emax is 25 to 100% at M2 muscarinic receptor, 25 to 100% at M4 muscarinic receptor, below 25% at M3 muscarinic receptor and below 25% at M1 muscarinic receptor.
In the case of `CN1CC(C(=O)N[C@@H]2CCC3(CCN(CCC(C)(C)C)CC3)c3ccccc32)CC1=O` (stereo partly shown) [compound 25], the EC50 is above 5000 nM at M2 muscarinic receptor, below 2000 nM on M4 muscarinic receptor, above 5000 nM on M3 muscarinic receptor and above 5000 nM on M1 muscarinic receptor. For the same molecule, the Emax at M2 muscarinic receptor was below 25%; on M4 muscarinic receptor it was 25 to 100%; on M3 muscarinic receptor it was below 25%; on M1 muscarinic receptor, below 25%.
In the case of `CCC(=O)C1NCCC1C(=O)N[C@H]1CCC2(CCN(CCC(C)(C)C)CC2)c2cc(F)ccc21` (stereo partly shown) [compound 26], the EC50 on M2 muscarinic receptor was above 5000 nM; at M4 muscarinic receptor, below 2000 nM; on M3 muscarinic receptor it was above 5000 nM; on M1 muscarinic receptor, below 2000 nM. Further, the Emax is below 25% on M2 muscarinic receptor, 25 to 100% on M4 muscarinic receptor, below 25% on M3 muscarinic receptor and 25 to 100% at M1 muscarinic receptor.
For `CC(C)(C)CCN1CCC2(CC[C@H](NC(=O)C3CCCO3)c3ccc(F)cc32)CC1` (stereo partly shown) [compound 27], the EC50 at M2 muscarinic receptor was below 2000 nM; at M4 muscarinic receptor, below 2000 nM; on M3 muscarinic receptor, above 5000 nM; at M1 muscarinic receptor, below 2000 nM. The Emax on M2 muscarinic receptor was below 25%; on M4 muscarinic receptor it was 25 to 100%; at M3 muscarinic receptor it was below 25%; on M1 muscarinic receptor, 25 to 100%.
